The values that follow come from patent US5985937A, “Use of 2,4-distributed phenol derivatives as 5-lipoxygenase inhibitors” (priority 1994, dated 1999).

One data set deals with canine arthrosis. Kind of data set: clinical trial on canine arthrosis. The class given is in vivo, dog. Set-up: key: +++: very good response, total recovery; ++: good response, functionability recovery; +: moderate response, improvement; -: negative response or no apparent improvement. Conditions: 4 mg/kg day orally, 45 days. As to the method:
After the diagnosis, each animal was treated with Bobel capsules during 45 days, with a follow up every 15 days. Blood, synovial liquid and urine samples were taken at the beginning and at the end of the treatment in order to perform the following tests: Synovial liquid analysis (cytology, cytokines 1,6,8 and TNF); LTB4; LTC4; PGE2; hematic count and leukocyte content; standard serum biochemistry; urine sediment; Rose-Wealer test; and radiology control. The methodology for clinical validation involved applying evaluating uniform parameters and classifying the results according to the following notations: (+++)=very good response, total recovery; (++)=good response, functionability recovery; (+)=moderate response, improvement; (-)=negative response or no apparent improvement.

The next data set concerns rats. Kind of data set: chronic toxicity in rats. The class given is in vivo, rat. Conditions: 350 mg/kg.day, 6 months; hematological, biochemical, anatomy-pathological.
A further data set relates to herpes simplex. Put plainly: in vivo activity in patients with herpes simplex. Set-up: species or system human (patients). Conditions: 15 mg/day intramuscularly, a month. The source says:
The 2,4-disubstituted phenol derivatives of the present invention are anti-herpetic agents in vivo, since they eliminate the symptoms of patients suffering from different types of herpes simplex (genital herpes, herpes of mouth and lips, recurrent herpes), and of patients suffering from herpes zoster. There is no relapse after leaving the treatment. The products are active both intramuscularly and topically, the first via being preferred.
A total of 25 patients with symptoms of different herpes simplex (genital, buccal or reincident) were treated with 15 mg/day of Bobel-24, intramuscularly, during a month, with the following results: with the ten patients of genital herpes simplex, the results was excellent in 7 cases, good in 2 and regular in 1; of the twelve with buccal herpes simplex it was excellent in 9 cases, good in 2 and regular in 1; of the 3 with reincident herpes it was excellent in 2 of the cases and good in 1. […] The case of genital herpes which resulted "regular" was an obese and diabetic […], and although there was an improvement there was also reincidency. Independently an test for antiviral activity in vitro resulted negative.

Regarding `Oc1c(I)cc(I)cc1I` [Bobel-24, 2,4,6-triiodophenol], in the data set on canine arthrosis (Doge 3 years), the “Evolution, spondolytis” value is given as “+++”. Further, in the data set on canine arthrosis (German shepherd 2 years), the “Evolution, broken muscle” value is given as “+”. For the same molecule, the “Evolution, generalized arthrosis” value in the data set with canine arthrosis (German shepherd 10 years) is reported as “++”. The “Evolution, rotular arthrosis” value in the data set with canine arthrosis (Mongrel 14 years) is given as “++”. Further, the “Evolution, degenerative arthrosis” value in the data set on canine arthrosis (Poodle 11 years) is reported as “+++”. In addition, the “Evolution, broken crossed ligament” value with canine arthrosis (Poodle 15 years) was “+”. The “Evolution, equine cauda” value with canine arthrosis (b309 Mastif 11 years, b317 Mongrel 13 years) was “+++”. In addition, the “Evolution, arthrosis” value in the data set with canine arthrosis (b312 Rottwailer 1 year, b322 German shepherd 9 years) is given as “+++”. For the same molecule, the “chronic toxicity in rats” value in the data set on rats is “not observed”. Further, the “disappearance of the symptoms, herpes simplex overall” value in the data set with herpes simplex (25 patients) is “clear and generalized disappearance of the symptoms”. Moreover, in the data set with herpes simplex (of 3 patients), the “cases with excellent result, reincident herpes” value came to 2 cases and the “cases with good result, reincident herpes” value came out at 1 cases. Moreover, in the data set with herpes simplex (of ten patients), the “cases with excellent result, genital herpes simplex” value was found to be 7 cases and the “cases with good result, genital herpes simplex” value is reported as 2 cases. Also, in the data set with herpes simplex (of ten patients, obese and diabetic patient, reincidency), the “cases with regular result, genital herpes simplex” value turned out to be 1 cases. In the data set with herpes simplex (of twelve patients), the “cases with excellent result, buccal herpes simplex” value is on record as 9 cases; the “cases with good result, buccal herpes simplex” value worked out at 2 cases; the “cases with regular result, buccal herpes simplex” value came to 1 cases.
